Experiment [1] has as its system HPPD variant APESV V209 (SEQ ID NO: 18). The experiment is described as follows: coupled HGO assay. It counts as biochemical, Apera spica-venti. The protocol: (§1) DNA sequences (SEQ ID NOs: 65-118, 128, 130, 131, and 133), synthesized for expression in E. coli, by GeneWiz (USA) to encode HPPD variants (SEQ ID NOs: 5-58, 122, 124, 125 and 127) derived from either Avena sativa (SEQ ID NOs: 122, 124), Alopecurus myosuroides (SEQ ID NO: 126) or Apera spica-venti (SEQ ID NOs: 123, 125) were transformed into E coli BL21 (DE3) (New England Biolabs) and grown in 0.5 ml Terrific broth +50 ug/ml Kanamycin media in a 96-deepwell block overnight (37° C., 900rpm). 25 ul of the overnight cultures were inoculated into fresh 96-deepwell block containing 1 ml Formedium Autoinduction Media (AIM). The AIM cultures were grown for 3h at 37° C. (900rpm) and then transferred to 20° C. overnight (900rpm) to allow protein expression. The overnight cultures were centrifuged and 500 ul of Cellytic B (Sigma Aldrich) was added to resuspend the cell pellets. The coupled HGO assay (Siehl et al, 2014) is used to generate IC50 values for the HPPD variants of interest.
(§2) E. coli BL21 (DE3) cells were transformed with a pET24a vector containing a C-terminally his-tagged Arabidopsis HGO gene, grown and induced overnight as described for the HPPD variants above. The cell pellet was resuspended in phosphate buffered saline at pH 7.4 containing 10% Glycerol, 1mm Tris[2-carboxyethyl] phosphine-HCl (TCEP) plus 30 mM Imidazole and lysed using lysozyme/benzonase. The extract was clarified by low speed centrifugation and purified in the same buffer down a 1 ml His Gravitrap column. The bound HGO was eluted in 0.25M imidazole and the fractions pooled and beaded into liquid nitrogen. All procedures apart from the centrifugation and beading steps were carried out under a nitrogen atmosphere.
(§3) The coupled HGO assay is carried out by adding 10 ul of HPPD extract to a 96-well plate and then adding 40 ul of reaction buffer (50 mM Bis Tris Propane, pH7.0, 25 mM sodium-L-ascorbate, 400μM mercaptoethanol, 50 μM Fe(II)SO4). The plates are left to incubate for 5 minutes on ice. […] 200 ul of HPP/HGO (197 μM hydroxyphenylpyruvic acid, 16 μl/ml Homogentisic Acid Oxidase in reaction buffer as described above) buffer is then added to the well and the reaction is regularly monitored (e.g. every 30 seconds-5 minutes) for absorbance at 330 nm for a given time period (e.g., for between 15-60 minutes). The data can then be used to calculate the IC50 value for each HPPD variant of interest.

For experiment [2], the system named is HPPD variant APESV V200 (SEQ ID NO: 6). The experiment is described as follows: coupled HGO assay. It counts as biochemical, Apera spica-venti. On the procedure:
as §1, §2, §3

The subject of experiment [3] is HPPD variant APESV V208 (SEQ ID NO: 15). The experiment is described as follows: coupled HGO assay. It counts as biochemical, Apera spica-venti. On the procedure: as §1, §2, §3
In experiment [4] the test system is transgenic tobacco plants expressing mutant HPPD SEQ ID 20. Briefly: spray test, herbicidal damage scoring. Conditions: several events expressing SEQ ID 20; 800 g/ha (Table 3.3). Type of experiment: in vivo. The protocol: Avena sativa HPPD or orthologues and variants thereof, for example SEQ IDs 1-63 and 122-127, were expressed in transgenic tobacco. DNA sequences that encode these polypeptides (optimized for tobacco or, optionally, codon optimized according to a target crop such as soybean) were prepared synthetically. Each sequence was designed to include a 5′ fusion with TMV omega 5′ leader sequence such that they are flanked at the 5′ end with XhoI and at the 3′ end with KpnI to facilitate direct cloning into a suitable binary vector for Agrobacterium-based plant transformation. […]
Plants are assessed for damage and scored at, for example, 7 and 14 days after treatment (DAT). […]
Plants of events showing the least damage are grown to flowering, then bagged and allowed to self. […] Single copy events amongst the Ti plant lines are identified by their 3:1 segregation ratio (with respect to kanamycin and/or herbicide) and by quantitative RT-PCR. […] HPPD expression levels were monitored by Western analysis.
The tobacco lines expressing SEQ ID 122 were now compared to a population of tobacco which express SEQ ID 20. The plants were sprayed with 800g/ha Bicyclopyrone and scored for damage.

For `Cn1nnnc1NC(=O)c1ccc(C(F)(F)F)nc1-n1cncn1` [Herbicide D, N-(1-methyltetrazol-5-yl)-2-(1,2,4-triazol-1-yl)-6-(trifluoromethyl)pyridine-3-carboxamide], the IC50 in experiment [1] turned out to be 95 µM; in experiment [2], 85.9 µM.

The molecule bicyclopyrone came in with an IC50 in experiment [3] of 1 µM. Besides, the “tolerance in comparison to events expressing SEQ ID 122” value in experiment [4] is on record as “increased tolerance”.

Broadly, the IC50 is the concentration needed to halve the response being measured. A low value points to greater potency in that assay.

(Values after US20240043860A1, “NOVEL HYDROXYPHENYLPYRUVATE DIOXYGENASE POLYPEPTIDES AND METHODS OF USE THEREOF” (Syngenta Crop Protection AG, priority 2020, published 2024).)
